Test [1] has as its system MCF-7 cells. Nature of the test: Immunoblotting of PDZD2 in cell lysates and sPDZD2 in conditioned media with anti-PDZD2 antibody. The conditions noted are these: 10 μM Z-DEVD-FMK, 48 hours, compared to Z-FA-FMK-treated cells. Type of test: cell-based, human. The source says:
(§1) Given that cleavage of pro-IL-16 to form the corresponding secretory IL-16 cytokine is mediated by caspase-3, we tested whether or not proteolytic cleavage of full-length PDZD2 to its secreted protein sPDZD2 is caspase-3-dependent in human prostate, breast and liver cancer cells. Human prostate cancer cell lines LNCaP.FGC (CRL-1740), DUI45 (HTB-81), PC-3 (CRL-1435), and 22Rv1 (CRL-2505), breast adenocarcinoma cell line MCF-7 (HTB-22), and hepatocellular carcinoma cell line Hep-G2 (HB-8065) were obtained from American Type Culture Collection. […] Cell lysates in sample buffer (0.2% SDS, 10% glycerol, 0.06 M Tris-HCl (pH 6.8), 100 mM DTT, and 0.01% bromophenol blue) were heated at 95° C. for 5 min. Proteins in the conditioned media were concentrated by 50-fold using YM-10 Centricons (Millipore). Samples (10 μg) were resolved by SDS-PAGE and electroblotted to PVDF membranes (Millipore). The blots were blocked with 5% non-fat milk powder in TBS-T for 1 hour at room temperature and then incubated with rabbit anti-PDZD2 antibody (1: 10,000 dilution) overnight at 4° C. After washing with TBS-T, the blots were incubated with secondary antibodies against rabbit immunoglobulin G (ZYMED Laboratories). Blots were stripped in 25 mM glycine buffer (pH 2.0) for 30 min for re-probing with α-tubulin (1:500 dilution, Santa Cruz Biotechnology). The signals were visualized by enhanced chemiluminescence Western blotting system (Amersham Biosciences) and densitometric scannings of films of the developed blot normalized against α-tubulin were determined.
A general note: In western blotting, separated proteins are transferred to a membrane and probed.

The subject of test [2] is Hep-G2 cells. Described as above. The class given is cell-based, human. The conditions noted are these: 10 μM Z-DEVD-FMK, 48 hours, compared to Z-FA-FMK-treated cells.
Text: as §1

Test [3] concerns DU145 cells. Described as above. The conditions noted are these: 10 μM Z-DEVD-FMK, 48 hours, compared to Z-FA-FMK-treated cells. Type of test: cell-based, human.
Text: as §1

Test [4] has as its system PC-3 cells. Described as above. The class given is cell-based, human. The conditions noted are these: 10 μM Z-DEVD-FMK, 48 hours, compared to Z-FA-FMK-treated cells.
Text: as §1

The subject of test [5] is 22Rv1 cells. The description is as above. Type of test: cell-based, human. The conditions noted are these: 10 μM Z-DEVD-FMK, 48 hours, compared to Z-FA-FMK-treated cells.
Text: as §1

Test [6] deals with T1, PDZ domain-containing protein 2 (PDZD2), full-length, human (human) (UniProt O15018).
T1 sequence: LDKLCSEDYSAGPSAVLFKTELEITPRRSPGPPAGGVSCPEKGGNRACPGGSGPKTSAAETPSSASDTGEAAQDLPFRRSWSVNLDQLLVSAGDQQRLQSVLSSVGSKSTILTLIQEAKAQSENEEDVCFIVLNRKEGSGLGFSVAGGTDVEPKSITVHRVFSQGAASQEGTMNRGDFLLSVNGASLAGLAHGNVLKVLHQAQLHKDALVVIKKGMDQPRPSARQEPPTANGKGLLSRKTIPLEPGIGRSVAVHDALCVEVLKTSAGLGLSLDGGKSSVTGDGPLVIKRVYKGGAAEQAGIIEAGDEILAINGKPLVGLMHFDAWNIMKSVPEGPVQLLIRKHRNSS
Nature of the test: cell-based or functional assay.

As to Z-DEVD-FMK, the “increase of PDZD2 expression” value in test [1] is recorded as 3.5 fold; in test [2], 4.1 fold; in test [3], 3 fold; in test [4] it was 2 fold; in test [5] it was 4.4 fold. Moreover, the “reduction of sPDZD2 secretion into conditioned media” value is 57% in test [1] (serum-free); 52% in test [2] (serum-free); 40% in test [3] (serum-free); 28% in test [4] (serum-free); 44% in test [5] (serum-free).

B1: caspase-3 (enzyme, human, UniProt P42574 29-277, looked up)
chain: SGISLDNSYKMDYPEMGLCIIINNKNFHKSTGMTSRSGTDVDAANLRETFRNLKYEVRNKNDLTREEIVELMRDVSKEDHSKRSSFVCVLLSHGEEGIIFGTNGPVDLKKITNFFRGDRCRSLTGKPKLFIIQACRGTELDCGIETDSGVDDDMACHKIPVEADFLYAYSTAPGYYSWRNSKDGSWFIQSLCAMLKQYADKLEFMHILTRVNRKVATEFESFSFDATFHAKKQIPCIVSMLTKELYFYH
In the case of B1, in test [6], the increase of full-length PDZD2 in cell lysate, 22Rv1 cells, 10 µM Z-DEVD-FMK 48 h vs Z-FA-FMK was 4.4 fold; the increase of full-length PDZD2 in cell lysate, DU145 cells, 10 µM Z-DEVD-FMK 48 h vs Z-FA-FMK is 3 fold; the increase of full-length PDZD2 in cell lysate, Hep-G2 cells, 10 µM Z-DEVD-FMK 48 h vs Z-FA-FMK was 4.1 fold; the increase of full-length PDZD2 in cell lysate, MCF-7 cells, 10 µM Z-DEVD-FMK 48 h vs Z-FA-FMK came to 3.5 fold. In addition, in test [6], the increase of full-length PDZD2 in cell lysate, PC-3 cells, 10 µM Z-DEVD-FMK 48 h vs Z-FA-FMK is 2 fold; the reduction of sPDZD2 secretion into conditioned medium, 22Rv1 cells, 10 µM Z-DEVD-FMK 48 h vs Z-FA-FMK is 44%; the reduction of sPDZD2 secretion into conditioned medium, DU145 cells, 10 µM Z-DEVD-FMK 48 h vs Z-FA-FMK was 40%; the reduction of sPDZD2 secretion into conditioned medium, Hep-G2 cells, 10 µM Z-DEVD-FMK 48 h vs Z-FA-FMK turned out to be 52%. In test [6], this molecule came in with a reduction of sPDZD2 secretion into conditioned medium, MCF-7 cells, 10 µM Z-DEVD-FMK 48 h vs Z-FA-FMK of 57% and a reduction of sPDZD2 secretion into conditioned medium, PC-3 cells, 10 µM Z-DEVD-FMK 48 h vs Z-FA-FMK of 28%.

The values above are taken from patent publication US20090062189A1, “TUMOR SUPPRESSOR PROTEIN AND NUCLEOTIDE ENCODING SAME” (priority 2006, published 2009).
